Values of other authors, collected in patent publication US11646117B2, “Matrix factorization of antibiogram metadata” (priority 2019, dated 2023).
Like-named read-outs stand apart in the source and are kept apart here.

Test system: Klebsiella pneumoniae (biosample SAMN07265011, strain DHQP1605752_NV)
Conditions: for Measurement (MIC): CLSI; for Resistance phenotype: testing standard CLSI

Row | Compound | Measurement (MIC) (laboratory typing method MIC) [µg/mL] | Resistance phenotype | Measurement (MIC) (MIC, platform Agar dilution) [µg/mL] | Measurement (MIC) (MIC, platform Etest) [µg/mL]
1 | NCC[C@H](O)C(=O)N[C@@H]1C[C@H](N)[C@@H](O[C@H]2O[C@H](CN)[C@@H](O)[C@H](O)[C@H]2O)[C@H](O)[C@H]1O[C@H]1O[C@H](CO)[C@@H](O)[C@H](N)[C@H]1O [amikacin] | > 64 | resistant | – | –
2 | CC1(C)S[C@@H]2[C@H](NC(=O)[C@H](N)c3ccccc3)C(=O)N2[C@H]1C(=O)O [ampicillin] | > 32 | resistant | – | –
3 | C[C@H]1[C@H](NC(=O)/C(=N\OC(C)(C)C(=O)O)c2csc(N)n2)C(=O)N1S(=O)(=O)O [aztreonam] | > 64 | resistant | – | –
4 | Cc1nnc(SCC2=C(C(=O)O)N3C(=O)[C@@H](NC(=O)Cn4cnnn4)[C@H]3SC2)s1 [cefazolin] | > 8 | resistant | – | –
5 | CO/N=C(\C(=O)N[C@@H]1C(=O)N2C(C(=O)[O-])=C(C[N+]3(C)CCCC3)CS[C@H]12)c1csc(N)n1 [cefepime] | > 32 | resistant | – | –
6 | CO/N=C(\C(=O)N[C@@H]1C(=O)N2C(C(=O)O)=C(COC(C)=O)CS[C@H]12)c1csc(N)n1 [cefotaxime] | > 64 | resistant | – | –
7 | CO[C@@]1(NC(=O)Cc2cccs2)C(=O)N2C(C(=O)O)=C(COC(N)=O)CS[C@@H]21 [cefoxitin] | > 16 | resistant | – | –
8 | CC(C)(O/N=C(\C(=O)N[C@@H]1C(=O)N2C(C(=O)[O-])=C(C[n+]3ccccc3)CS[C@H]12)c1csc(N)n1)C(=O)O [ceftazidime] | > 128 | resistant | – | –
9 | CO/N=C(\C(=O)N[C@@H]1C(=O)N2C(C(=O)O)=C(CSc3nc(=O)c(=O)[nH]n3C)CS[C@H]12)c1csc(N)n1 [ceftriaxone] | > 32 | resistant | – | –
10 | O=C(N[C@H](CO)[C@H](O)c1ccc([N+](=O)[O-])cc1)C(Cl)Cl [chloramphenicol] | > 16 | resistant | – | –
11 | C[C@@H](O)[C@H]1C(=O)N2C(C(=O)O)=C(S[C@@H]3CN[C@H](CNS(N)(=O)=O)C3)[C@H](C)[C@H]12 [doripenem] | > 8 | resistant | – | –
12 | C[C@@H](O)[C@H]1C(=O)N2C(C(=O)O)=C(S[C@@H]3CN[C@H](C(=O)Nc4cccc(C(=O)O)c4)C3)[C@H](C)[C@H]12 [ertapenem] | > 8 | resistant | – | –
13 | C[C@@H]1O[C@@H]1P(=O)(O)O [fosfomycin] | – | – | 32 | 16
14 | C[C@@H](O)[C@H]1C(=O)N2C(C(=O)O)=C(S[C@@H]3CN[C@H](C(=O)N(C)C)C3)[C@H](C)[C@H]12 [meropenem] | > 8 | resistant | – | –
15 | CN(C)c1cc(NC(=O)CNC(C)(C)C)c(O)c2c1C[C@H]1C[C@H]3[C@H](N(C)C)C(O)=C(C(N)=O)C(=O)[C@@]3(O)C(O)=C1C2=O [tigecycline] | 4 | intermediate | – | –
16 | NC[C@H]1O[C@H](O[C@H]2[C@H](O)[C@@H](O[C@H]3O[C@H](CO)[C@@H](O)[C@H](N)[C@H]3O)[C@H](N)C[C@@H]2N)[C@H](N)C[C@@H]1O [tobramycin] | > 16 | resistant | – | –
17 | colistin | > 8 | – | – | –
18 | gentamicin | > 16 | resistant | – | –
19 | polymyxin B | > 8 | – | – | –
